# Laboratory results reported in patent publication US7405240B2, “Substituted cyclopentanes or cyclopentanones as therapeutic agents” (Allergan, Inc., priority 2006, dated 2008).
# Columns and labels:
# normotensive dogs = assay: Intraocular pressure and ocular surface hyperemia in normotensive dogs; format: in vivo, dog; set-up: maximum OSH score: scale not given here; conditions: 0.1%, once daily for 5 days; for change in vivo at 0.1 %: Canis lupus familiaris, topical, 120 h, read-out: maximum IOP decrease from baseline
# Method: (§1) (Z)-7-[(1R,2S,3R,5R)-5-Chloro-2-(3,5-dichloro-phenoxymethyl)-3-hydroxy-cyclopentyl]-hept-5-enoic acid (15b) was tested at multiple concentrations in normotensive dogs, dosing once daily for 5 days. At 0.05%, the maximum IOP decrease from baseline was 4.3 mmHg (30%) at 6 h; the maximum OSH score was 0.6 at 6 h. […] This compound was also tested in laser-induced hypertensive monkeys, using one single day dose. At 0.1%, the maximum IOP decrease from baseline was 6 mmHg (19%) at 6 h.
# (§2) (Z)-7-[(1R,2S,3R,5R)-5-Chloro-2-(3,5-dichloro-phenoxymethyl)-3-hydroxy-cyclopentyl]-hept-5-enoic acid isopropyl ester (42b) was tested in normotensive dogs at 0.05%, dosing once daily for 5 days. The maximum intraocular pressure (IOP) decrease from baseline was 3 mmHg (19%) at 6 h; the maximum ocular surface hyperemia (OSH) score was 0.6 at 74 h. This compound was also tested in laser-induced hypertensive monkeys, using one single day dose. At 0.01%, the maximum IOP decrease from baseline was 6 mmHg (16%) at 6 h.
# hEP2 [1] = target: T1, hEP2 (Homo sapiens, UniProt P43116); assay: Competition binding, [3H]PGE2, human EP2 receptors; set-up: expressed in transfected cells; host or cells: HEK 293; conditions: [3H]PGE2, HEK 293 cells stably expressing human EP2; read-out: hEP2 Ki
# In short: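 HEK 293 membranes or cells stably expressing human EP2 were incubated with 10 nM [3H]PGE2 and test compound in HBSS/20 mM Hepes pH 7.3, 60 min at 23° C, then filtered. Non-specific binding defined with 10 μM PGE2; IC50 from single-site fit converted to Ki using KD 40 nM.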
# hEP2 [2] = target: T1, hEP2; assay: FLIPR calcium signal, hEP2; format: cell-based; set-up: expressed in transfected cells; host or cells: HEK-293(EBNA); conditions: HEK-293(EBNA) cells expressing hEP2/Gqs5
# In short: (§3)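 HEK-293(EBNA) cells stably expressing a single human prostaglandin receptor (hDP/Gqs5 chimera for DP), Fluo-4 AM loaded, in HBSS-HEPES pH 7.4 at 37 °C. Peak calcium fluorescence scaled to buffer and receptor standard agonist; 10^−5 M single-point or 10^−5–10^−11 M curves, duplicates, n≥3.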
# hEP2 [3] = target: T1, hEP2; assay: cAMP assay, hEP2; format: cell-based
# [4] = tested on: laser-induced hypertensive monkeys; assay: Intraocular pressure in laser-induced hypertensive monkeys; format: in vivo, monkey; conditions: 0.1%, one single day dose; for change in vivo at 0.1 %: Primates, topical, read-out: maximum IOP decrease from baseline
# Method: as §1, §2
# hEP4 [5] = target: T2, hEP4 (Homo sapiens, UniProt P35408); assay: Radioligand binding, EP4 receptor; set-up: expressed in transfected cells; host or cells: HEK-293; conditions: [3H]PGE2, HEK-293 cells expressing EP4
# In short: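 HEK-293 membranes stably expressing human EP4, in TME buffer pH 7.4; competition vs 5 nM [3H]-PGE2, 60 min at 25 °C, stopped by GF/B filtration. Non-specific binding defined with 10^−5 M unlabeled PGE2; duplicates, at least three experiments.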
# hEP4 [6] = target: T2, hEP4; assay: FLIPR calcium signal, hEP4; format: cell-based; set-up: expressed in transfected cells; host or cells: HEK-293(EBNA); conditions: HEK-293(EBNA) cells expressing hEP4/Gqs5
# In short: as §3
# T1 sequence (P43116 whole entry): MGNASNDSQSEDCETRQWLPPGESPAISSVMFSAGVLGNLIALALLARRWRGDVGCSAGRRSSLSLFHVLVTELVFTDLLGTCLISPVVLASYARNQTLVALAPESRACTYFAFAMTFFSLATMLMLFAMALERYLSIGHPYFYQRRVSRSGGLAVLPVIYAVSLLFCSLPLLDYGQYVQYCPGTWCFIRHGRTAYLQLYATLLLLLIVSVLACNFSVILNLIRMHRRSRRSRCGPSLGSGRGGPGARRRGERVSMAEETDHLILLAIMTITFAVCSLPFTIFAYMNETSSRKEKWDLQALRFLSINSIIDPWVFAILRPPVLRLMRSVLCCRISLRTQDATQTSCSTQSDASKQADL
# T2 sequence (P35408 whole entry): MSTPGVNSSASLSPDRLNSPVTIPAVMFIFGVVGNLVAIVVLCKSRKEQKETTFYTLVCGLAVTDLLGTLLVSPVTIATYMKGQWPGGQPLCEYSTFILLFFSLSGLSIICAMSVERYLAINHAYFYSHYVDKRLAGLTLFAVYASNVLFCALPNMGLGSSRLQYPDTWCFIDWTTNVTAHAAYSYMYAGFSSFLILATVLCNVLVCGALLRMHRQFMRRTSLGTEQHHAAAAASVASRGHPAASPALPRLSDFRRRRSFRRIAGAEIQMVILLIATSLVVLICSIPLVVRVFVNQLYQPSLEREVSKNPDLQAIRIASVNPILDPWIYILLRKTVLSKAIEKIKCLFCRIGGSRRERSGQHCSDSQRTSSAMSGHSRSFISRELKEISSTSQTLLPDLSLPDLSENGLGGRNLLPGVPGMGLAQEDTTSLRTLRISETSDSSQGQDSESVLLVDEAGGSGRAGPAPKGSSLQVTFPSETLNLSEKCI
maximum OSH score (normotensive dogs),time of maximum OSH score (normotensive dogs) [h],Ki (hEP2 [1]) [nM],EC50 (hEP2 [2]) [nM],EC50 (hEP2 [3]) [nM],Ki (hEP4 [5]) [nM],EC50 (hEP4 [6]) [nM],SMILES,maximum IOP decrease from baseline (normotensive dogs) [mmHg],time of maximum IOP decrease (normotensive dogs) [h],change in vivo at 0.1 % (normotensive dogs) [%],maximum IOP decrease from baseline [4] [mmHg],time of maximum IOP decrease [4] [h],change in vivo at 0.1 % [4] [%]
0.8,54,17,3,2,315,115,"O=C(O)CCC/C=C\C[C@@H]1[C@@H](COc2cccc3ccccc23)[C@H](O)C[C@H]1Cl [Example 19, (Z)-7-[(1R,2S,3R,5R)-5-Chloro-3-hydroxy-2-(naphthalen-1-yloxymethyl)-cyclopentyl]-hept-5-enoic acid]",5.8,6,41,11.8,6,31
1.2,28,31,27,1.4,1090,7720,"Cc1cc(C)cc(OC[C@@H]2[C@@H](C/C=C\CCCC(=O)O)[C@H](Cl)C[C@H]2O)c1 [Example 36, (Z)-7-[(1R,2S,3R,5R)-5-Chloro-2-(3,5-dimethyl-phenoxymethyl)-3-hydroxy-cyclopentyl]-hept-5-enoic acid]",6.5,52,46,9,2,25
0.5,6,44,66,2.4,1420,9870,"O=C(O)CCC/C=C\C[C@@H]1[C@@H](COc2cccc(C(F)(F)F)c2)[C@H](O)C[C@H]1Cl [Example 24, (Z)-7-[(1R,2S,3R,5R)-5-Chloro-3-hydroxy-2-(3-trifluoromethyl-phenoxymethyl)-cyclopentyl]-hept-5-enoic acid]",2.5,78,16,10.8,6,28
0.9,52,8,11,8,2290,13000,"O=C(O)CCC/C=C\C[C@@H]1[C@@H](COc2cc(C(F)(F)F)cc(C(F)(F)F)c2)[C@H](O)C[C@H]1Cl [Example 15, (Z)-7-[(1R,2S,3R,5R)-2-(3,5-Bis-trifluoromethyl-phenoxymethyl)-5-chloro-3-hydroxy-cyclopentyl]-hept-5-enoic acid]",4.8,100,35,11,6,30
0.6,98,993,44,5,> 10000,–,"O=C(O)CCC/C=C\C[C@@H]1[C@@H](COc2ccc(CO)cc2)[C@H](O)C[C@H]1Cl [Example 43, (Z)-7-[(1R,2S,3R,5R)-5-Chloro-3-hydroxy-2-(4-hydroxymethyl-phenoxymethyl)-cyclopentyl]-hept-5-enoic acid]",2.8,98,20,2,6,6
0.9,74,–,–,–,–,–,"Cc1cc(C)cc(OC[C@@H]2[C@@H](C/C=C\CCCC(=O)OC(C)C)[C@H](Cl)C[C@H]2O)c1 [Example 42u, (Z)-7-[(1R,2S,3R,5R)-5-Chloro-2-(3,5-dimethyl-phenoxymethyl)-3-hydroxy-cyclopentyl]-hept-5-enoic acid isopropyl ester]",4.3,30,30,8,6,23
